Source: US20200239530A1, “COMPOUNDS AND METHODS OF MODULATING PROTEIN DEGRADATION” (Vividion Therapeutics, Inc., priority 2017, published 2020)

Assays:
[1] = biological target: T1, AGPAT6 Glycerol-3-phosphate acyltransferase 4 (Homo sapiens, UniProt Q86UL3); assay: Cysteine liganding, probe competition; type: binding; details: for Liganded: AGPAT6 Res# 325, uniprot Q86UL3
T1 construct: Cells were resuspended in cold PBS on ice and sonicated with a probe sonicator to achieve lysis; endogenous in cells
T1 sequence (Q86UL3 38-456): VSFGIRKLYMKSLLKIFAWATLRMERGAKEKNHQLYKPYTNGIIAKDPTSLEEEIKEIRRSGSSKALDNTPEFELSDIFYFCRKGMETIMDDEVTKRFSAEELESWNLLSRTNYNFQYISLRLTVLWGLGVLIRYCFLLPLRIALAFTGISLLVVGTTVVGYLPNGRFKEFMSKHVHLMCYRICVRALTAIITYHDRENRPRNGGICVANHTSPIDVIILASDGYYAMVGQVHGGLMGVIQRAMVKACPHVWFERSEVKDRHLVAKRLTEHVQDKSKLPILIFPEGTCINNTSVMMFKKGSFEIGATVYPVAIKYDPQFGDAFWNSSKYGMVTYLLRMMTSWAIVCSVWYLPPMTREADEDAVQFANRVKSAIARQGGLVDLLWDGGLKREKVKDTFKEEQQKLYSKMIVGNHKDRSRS
How it was run: (§1)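 Lysates from probe-sonicated cells in PBS (5 mg/ml proteome) were exposed to compound for 1 hr at 25° C, then labelled with desthiobiotin iodoacetamide probe (10 mM stock) for 1 hr at 25° C. Probe-tagged peptides were streptavidin-enriched after trypsin digestion.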

[2] = biological target: T2, NUBP1 Cytosolic Fe—S cluster assembly factor NUBP1 (Homo sapiens, UniProt P53384); assay: Cysteine liganding, probe competition; type: binding; details: for Liganded: NUBP1 Res# 31, uniprot P53384
T2 construct: Cells were resuspended in cold PBS on ice and sonicated with a probe sonicator to achieve lysis; endogenous in cells
T2 sequence (P53384 1-320): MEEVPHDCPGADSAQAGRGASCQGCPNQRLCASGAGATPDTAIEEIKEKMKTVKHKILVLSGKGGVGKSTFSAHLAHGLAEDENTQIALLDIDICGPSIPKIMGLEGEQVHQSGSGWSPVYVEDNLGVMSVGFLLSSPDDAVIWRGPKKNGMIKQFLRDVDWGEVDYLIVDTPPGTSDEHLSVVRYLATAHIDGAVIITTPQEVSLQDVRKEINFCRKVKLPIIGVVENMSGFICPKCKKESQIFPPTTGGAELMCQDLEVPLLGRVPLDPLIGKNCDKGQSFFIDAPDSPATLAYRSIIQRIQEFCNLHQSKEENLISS
How it was run: as §1

COc1ccc2c(c1)CCCN2C(=O)CCl [KB02]
Liganded [1]: YES | Liganded [2]: YES

O=C(CCl)Nc1cc(C(F)(F)F)cc(C(F)(F)F)c1 [KBO3]
Liganded [1]: YES | 100 Max ([1]; uniprot Q86UL3): 66.91 | 100 ave ([1]; uniprot Q86UL3): 65.705 | 500 Max ([1]; uniprot Q86UL3): 85.19 | 500 ave ([1]; uniprot Q86UL3): 85.19 | Liganded [2]: YES | 100 ave ([2]; uniprot P53384): 7.3775 | 500 Max ([2]; uniprot P53384): 75.8 | 500 ave ([2]; uniprot P53384): 55.66 | 100 Max ([2]; uniprot P53384, in % (unit assumed)): 28.64
